In ChEMBL document CHEMBL3351806, “Development of a novel, multifunctional, membrane-interactive pyridinium salt with potent anticancer activity” (Bioorg Med Chem Lett, 2014) one finds Activity and EC50 data, which are given here for three molecules.

For orientation: EC50 means the concentration that produces a half-maximal response.

Molecules are shown by their SMILES. Activity calls are given as the source filed them. The rule behind the calls is not given here.

Test [1] can be described thus: Induction of membrane disruption using DMPC lipid vesicles at 187.5 uM. It is filed as functional.
Test [2] in a line: Induction of membrane disruption using DMPS lipid vesicles at 187.5 uM. It is filed as functional.
A short description of test [3]: Induction of membrane disruption using DMPE lipid vesicles at 187.5 uM. It is filed as functional.
A short description of test [4]: Induction of membrane disruption using DMPG lipid vesicles at 187.5 uM. It is filed as functional.
The subject of test [5] is IN1760. The test can be described thus: Induction of membrane disruption in human IN1760 cells assessed as cell structure disruption at 1000 uM by trypan blue exclusion assay. It is filed as functional, cell-based.
The nature of test [6]: Antiproliferative activity against human IN1472 cells after 72 hrs by SRB method. It is filed as functional, cell-based. The note with it: IN1472, 72 h.
Test [7] is described as follows: Antiproliferative activity against human IN1760 cells after 72 hrs by SRB method. It is filed as functional, cell-based. The note with it: IN1760, 72 h. (Sulforhodamine B stains cellular protein and so reports cell mass.)
Test [8] in a line: Antiproliferative activity against human IN1528 cells after 72 hrs by SRB method. It is filed as functional, cell-based. As to conditions: IN1528, 72 h.
A short description of test [9]: Antiproliferative activity against human U251MG cells after 72 hrs by SRB method. It is filed as functional, cell-based. The note with it: U-251, 72 h.
The subject of test [10] is IN1472. Briefly: Induction of membrane disruption in human IN1472 cells assessed as cell structure disruption at 1000 uM by trypan blue exclusion assay. It is filed as functional, cell-based.
The subject of test [11] is IN1760. The test can be described thus: Induction of membrane disruption in human IN1760 cells assessed as dye uptake at 200 to 500 uM by trypan blue exclusion assay. It is filed as functional, cell-based.
Test [12] concerns IN1528. The test can be described thus: Induction of membrane disruption in human IN1528 cells assessed as dye uptake at 200 to 500 uM by trypan blue exclusion assay. It is filed as functional, cell-based.
Test [13] relates to IN1472. Briefly: Induction of membrane disruption in human IN1472 cells assessed as dye uptake at 200 to 500 uM by trypan blue exclusion assay. It is filed as functional, cell-based.
The test system of test [14] is U-251. Briefly: Induction of membrane disruption in human U251MG cells assessed as dye uptake at 200 to 500 uM by trypan blue exclusion assay. It is filed as functional, cell-based.
Test [15] deals with IN1528. The test can be described thus: Induction of membrane disruption in human IN1528 cells assessed as cell structure disruption at 1000 uM by trypan blue exclusion assay. It is filed as functional, cell-based.
The test system of test [16] is U-251. The test can be described thus: Induction of membrane disruption in human U251MG cells assessed as cell structure disruption at 1000 uM by trypan blue exclusion assay. It is filed as functional, cell-based.

`CCCCCCCCc1ccc(C(=O)N(C)c2ccc(CCCCCCCC)cc2)cc1`: the Activity in test [1] stood at 27.3%; in [2] it was 27.2%; in [3], 34.7%; in [4], 16.6%.

On to `CN(C(=O)c1ccncc1)c1ccncc1`, for which the Activity in [1] was 34.1%; in test [2], 23.3%; in test [3], 34.9%; in [4] it was 30%.

As for `CCCCCCCC[n+]1ccc(C(=O)N(C)c2cc[n+](CCCCCCCC)cc2)cc1`, the outcome with IN1760 [5], in the test on IN1472 [10], in the test on IN1760 [11], in the test with IN1528 [12], with IN1472 [13] and with U-251 [14] was Active. In addition, the result with IN1528 [15] and in the test on U-251 [16] was Active. In addition, the EC50 turned out to be 78 µM in test [6], 19.5 µM in test [7], 9.8 µM in test [8] and 312 µM in [9]. Also, the Activity in test [1] was 38.8%; in [2] it was 64.6%; in test [3] it was 77.7%; in [4], 44.2%.
